Measured values as given in US10351575B2, “Bicyclic urea, thiourea, guanidine and cyanoguanidine compounds useful for the treatment of pain” (Array BioPharma Inc., priority 2012, dated 2019).

Experiments:
Assay in all cases: KinaseProfiler off-target kinase profiling
Format in all cases: biochemical
Conditions in all cases: 10 μM, ATP near Km
ARK5 = ARK5 (Homo sapiens (Human), UniProt O60285)
Outline: (§1)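 Percent of control (POC) is reported as the mean of two replicate wells. Each kinase reaction used ATP close to its own Km, and compound was tested at a single concentration of 10 μM.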

CAMK2d = CAMK2d (Homo sapiens (Human), UniProt Q13557)
Outline: as §1

CDK2/cyclinA = CDK2/cyclinA (Homo sapiens (Human), UniProt P24941)
Outline: as §1

CHK2 = CHK2 (Homo sapiens (Human), UniProt O96017)
Outline: as §1

ERK1 = ERK1 (Homo sapiens (Human), UniProt P27361)
Outline: as §1

ERK2 = ERK2 (Homo sapiens (Human), UniProt P28482)
Outline: as §1

EphA2 = EphA2 (Homo sapiens (Human), UniProt P29317)
Outline: as §1

EphB3 = EphB3 (Homo sapiens (Human), UniProt P54753)
Outline: as §1

Fes = Fes (Homo sapiens (Human), UniProt P07332)
Outline: as §1

Fms = Fms (Homo sapiens (Human), UniProt P07333)
Outline: as §1

HIPK2 = HIPK2 (Homo sapiens (Human), UniProt Q9H2X6)
Outline: as §1

IGF-1R = IGF-1R (Homo sapiens (Human), UniProt P08069)
Outline: as §1

MELK = MELK (Homo sapiens (Human), UniProt Q14680)
Outline: as §1

MYLK = MYLK (Homo sapiens (Human), UniProt Q15746)
MYLK, sequence (Q15746 whole entry): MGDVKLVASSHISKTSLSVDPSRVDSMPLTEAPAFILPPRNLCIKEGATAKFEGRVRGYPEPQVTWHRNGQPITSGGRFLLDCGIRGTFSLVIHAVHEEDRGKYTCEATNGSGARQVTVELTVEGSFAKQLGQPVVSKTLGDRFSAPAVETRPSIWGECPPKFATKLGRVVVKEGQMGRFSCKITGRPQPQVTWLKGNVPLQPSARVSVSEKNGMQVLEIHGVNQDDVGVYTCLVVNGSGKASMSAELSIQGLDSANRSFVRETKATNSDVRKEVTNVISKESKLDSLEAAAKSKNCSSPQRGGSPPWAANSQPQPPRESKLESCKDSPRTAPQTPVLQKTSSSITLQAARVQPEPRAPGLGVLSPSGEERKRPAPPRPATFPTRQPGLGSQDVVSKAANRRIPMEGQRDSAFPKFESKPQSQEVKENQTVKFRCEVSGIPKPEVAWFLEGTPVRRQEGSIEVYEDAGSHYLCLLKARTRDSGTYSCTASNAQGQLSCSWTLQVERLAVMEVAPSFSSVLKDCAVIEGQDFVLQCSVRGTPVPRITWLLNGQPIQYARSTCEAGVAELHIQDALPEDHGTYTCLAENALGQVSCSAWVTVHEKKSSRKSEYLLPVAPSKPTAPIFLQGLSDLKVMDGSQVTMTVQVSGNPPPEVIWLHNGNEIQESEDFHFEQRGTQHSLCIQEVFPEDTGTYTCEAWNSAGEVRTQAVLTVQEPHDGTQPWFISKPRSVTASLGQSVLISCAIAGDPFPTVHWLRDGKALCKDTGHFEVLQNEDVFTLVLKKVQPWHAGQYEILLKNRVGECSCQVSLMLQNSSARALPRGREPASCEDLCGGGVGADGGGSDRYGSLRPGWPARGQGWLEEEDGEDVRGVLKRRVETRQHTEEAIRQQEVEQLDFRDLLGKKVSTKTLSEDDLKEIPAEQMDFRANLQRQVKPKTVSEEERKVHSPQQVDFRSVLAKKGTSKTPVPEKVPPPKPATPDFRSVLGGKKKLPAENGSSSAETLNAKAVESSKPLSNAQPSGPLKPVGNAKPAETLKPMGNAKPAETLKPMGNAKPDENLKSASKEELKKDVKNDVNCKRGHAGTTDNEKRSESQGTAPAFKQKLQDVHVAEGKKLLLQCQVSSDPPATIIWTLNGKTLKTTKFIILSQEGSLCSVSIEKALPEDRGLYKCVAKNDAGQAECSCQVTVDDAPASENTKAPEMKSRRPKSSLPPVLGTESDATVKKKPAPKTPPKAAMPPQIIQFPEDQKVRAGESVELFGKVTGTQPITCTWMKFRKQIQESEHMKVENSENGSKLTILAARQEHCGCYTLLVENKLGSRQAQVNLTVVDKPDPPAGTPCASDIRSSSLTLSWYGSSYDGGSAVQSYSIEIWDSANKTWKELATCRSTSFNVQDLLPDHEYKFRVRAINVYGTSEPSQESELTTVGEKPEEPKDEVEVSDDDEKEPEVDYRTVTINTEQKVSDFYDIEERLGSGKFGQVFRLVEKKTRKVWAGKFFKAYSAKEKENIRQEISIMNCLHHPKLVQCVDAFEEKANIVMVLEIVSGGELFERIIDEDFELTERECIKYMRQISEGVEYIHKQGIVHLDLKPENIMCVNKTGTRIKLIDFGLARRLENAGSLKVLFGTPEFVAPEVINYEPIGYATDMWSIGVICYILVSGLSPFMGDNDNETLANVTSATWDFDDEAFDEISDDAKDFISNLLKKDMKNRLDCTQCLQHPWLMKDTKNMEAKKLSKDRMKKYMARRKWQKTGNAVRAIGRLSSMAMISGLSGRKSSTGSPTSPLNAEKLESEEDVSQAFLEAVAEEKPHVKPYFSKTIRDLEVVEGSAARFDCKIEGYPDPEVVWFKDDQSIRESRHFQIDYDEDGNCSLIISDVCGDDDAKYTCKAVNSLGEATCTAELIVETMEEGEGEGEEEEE
Outline: as §1

NEK3 = NEK3 (Homo sapiens (Human), UniProt P51956)
Outline: as §1

NEK6 = NEK6 (Homo sapiens (Human), UniProt Q9HC98)
Outline: as §1

NLK = NLK (Homo sapiens (Human), UniProt Q9UBE8)
NLK, sequence (Q9UBE8 whole entry): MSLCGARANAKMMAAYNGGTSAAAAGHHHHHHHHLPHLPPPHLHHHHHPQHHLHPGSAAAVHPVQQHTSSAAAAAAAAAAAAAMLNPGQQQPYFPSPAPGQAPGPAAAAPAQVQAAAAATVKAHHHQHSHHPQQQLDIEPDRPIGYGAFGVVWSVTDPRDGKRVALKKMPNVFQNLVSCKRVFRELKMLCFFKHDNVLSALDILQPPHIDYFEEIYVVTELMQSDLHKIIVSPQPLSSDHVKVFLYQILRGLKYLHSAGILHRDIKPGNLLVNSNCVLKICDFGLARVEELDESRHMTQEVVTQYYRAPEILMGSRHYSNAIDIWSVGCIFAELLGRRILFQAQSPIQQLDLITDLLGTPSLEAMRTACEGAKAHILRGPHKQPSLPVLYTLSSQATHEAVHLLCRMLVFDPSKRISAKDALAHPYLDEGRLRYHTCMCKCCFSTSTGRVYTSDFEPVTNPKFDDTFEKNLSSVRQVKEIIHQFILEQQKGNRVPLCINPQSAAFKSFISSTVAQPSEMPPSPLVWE
Outline: as §1

PAK4 = PAK4 (Homo sapiens (Human), UniProt O96013)
Outline: as §1

PAK5 = PAK5 (Homo sapiens (Human), UniProt Q9P286)
Outline: as §1

PAK6 = PAK6 (Homo sapiens (Human), UniProt Q9NQU5)
Outline: as §1

PDK1 = PDK1 (Homo sapiens (Human), UniProt O15530)
Outline: as §1

PKCiota = PKCiota (Homo sapiens (Human), UniProt P41743)
Outline: as §1

PKCzeta = PKCzeta (Homo sapiens (Human), UniProt Q05513)
Outline: as §1

PKD2 = PKD2 (Homo sapiens (Human), UniProt Q9BZL6)
Outline: as §1

PrKX = PrKX (Homo sapiens (Human), UniProt P51817)
Outline: as §1

ROCK-I = ROCK-I (Homo sapiens (Human), UniProt Q13464)
ROCK-I, sequence (Q13464 whole entry): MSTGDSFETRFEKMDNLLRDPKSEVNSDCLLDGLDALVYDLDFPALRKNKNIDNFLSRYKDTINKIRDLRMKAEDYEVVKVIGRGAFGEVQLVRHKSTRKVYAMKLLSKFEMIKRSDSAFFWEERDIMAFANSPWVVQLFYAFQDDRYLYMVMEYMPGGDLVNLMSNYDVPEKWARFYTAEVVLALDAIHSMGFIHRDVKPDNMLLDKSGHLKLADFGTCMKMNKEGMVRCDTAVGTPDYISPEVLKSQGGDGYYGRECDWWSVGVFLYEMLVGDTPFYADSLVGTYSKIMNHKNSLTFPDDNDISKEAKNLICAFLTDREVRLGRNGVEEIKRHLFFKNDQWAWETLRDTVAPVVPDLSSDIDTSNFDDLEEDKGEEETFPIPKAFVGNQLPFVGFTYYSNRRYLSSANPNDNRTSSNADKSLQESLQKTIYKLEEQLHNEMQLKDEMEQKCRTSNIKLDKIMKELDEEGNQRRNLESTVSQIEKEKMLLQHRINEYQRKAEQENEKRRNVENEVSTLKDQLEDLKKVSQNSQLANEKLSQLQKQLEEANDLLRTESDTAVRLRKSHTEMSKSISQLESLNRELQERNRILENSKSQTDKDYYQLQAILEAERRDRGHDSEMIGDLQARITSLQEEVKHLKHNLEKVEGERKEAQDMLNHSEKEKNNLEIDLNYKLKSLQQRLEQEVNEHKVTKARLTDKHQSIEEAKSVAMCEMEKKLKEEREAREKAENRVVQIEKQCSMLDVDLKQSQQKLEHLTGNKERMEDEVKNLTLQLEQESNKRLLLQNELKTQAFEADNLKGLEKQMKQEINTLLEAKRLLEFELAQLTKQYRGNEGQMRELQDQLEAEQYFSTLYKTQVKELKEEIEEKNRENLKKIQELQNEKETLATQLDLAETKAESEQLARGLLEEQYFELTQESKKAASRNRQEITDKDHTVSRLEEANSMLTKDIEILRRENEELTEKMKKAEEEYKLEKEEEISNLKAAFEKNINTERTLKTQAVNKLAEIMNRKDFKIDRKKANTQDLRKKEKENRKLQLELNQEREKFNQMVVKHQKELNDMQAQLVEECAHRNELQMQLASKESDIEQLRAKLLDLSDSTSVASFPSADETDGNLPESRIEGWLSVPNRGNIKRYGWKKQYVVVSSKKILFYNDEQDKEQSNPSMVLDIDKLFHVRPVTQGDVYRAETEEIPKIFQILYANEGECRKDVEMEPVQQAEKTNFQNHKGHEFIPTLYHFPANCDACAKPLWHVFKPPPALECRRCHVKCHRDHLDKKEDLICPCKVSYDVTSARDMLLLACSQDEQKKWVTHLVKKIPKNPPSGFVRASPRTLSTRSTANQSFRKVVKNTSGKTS
Outline: as §1

ROCK-II = ROCK-II (Homo sapiens (Human), UniProt O75116)
Outline: as §1

SGK3 = SGK3 (Homo sapiens (Human), UniProt Q96BR1)
Outline: as §1

SRPK2 = SRPK2 (Homo sapiens (Human), UniProt P78362)
Outline: as §1

TAK1 = TAK1 (Homo sapiens (Human), UniProt O43318)
TAK1, sequence (O43318 1-303): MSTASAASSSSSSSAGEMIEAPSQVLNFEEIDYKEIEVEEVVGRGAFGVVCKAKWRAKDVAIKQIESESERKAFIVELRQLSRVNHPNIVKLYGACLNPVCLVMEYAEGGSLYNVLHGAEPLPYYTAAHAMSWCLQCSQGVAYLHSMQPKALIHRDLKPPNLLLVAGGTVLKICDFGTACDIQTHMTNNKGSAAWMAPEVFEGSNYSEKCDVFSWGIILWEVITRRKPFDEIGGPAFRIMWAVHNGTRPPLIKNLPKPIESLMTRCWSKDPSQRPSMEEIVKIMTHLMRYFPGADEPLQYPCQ
TAK1, sequence (Q15750 437-504 partner): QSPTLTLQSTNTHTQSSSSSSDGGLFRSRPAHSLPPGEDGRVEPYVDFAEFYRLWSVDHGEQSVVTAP
Outline: as §1

TAO2 = TAO2 (Homo sapiens (Human), UniProt Q9UL54)
Outline: as §1

TAO3 = TAO3 (Homo sapiens (Human), UniProt Q9H2K8)
TAO3, sequence (Q9H2K8 whole entry): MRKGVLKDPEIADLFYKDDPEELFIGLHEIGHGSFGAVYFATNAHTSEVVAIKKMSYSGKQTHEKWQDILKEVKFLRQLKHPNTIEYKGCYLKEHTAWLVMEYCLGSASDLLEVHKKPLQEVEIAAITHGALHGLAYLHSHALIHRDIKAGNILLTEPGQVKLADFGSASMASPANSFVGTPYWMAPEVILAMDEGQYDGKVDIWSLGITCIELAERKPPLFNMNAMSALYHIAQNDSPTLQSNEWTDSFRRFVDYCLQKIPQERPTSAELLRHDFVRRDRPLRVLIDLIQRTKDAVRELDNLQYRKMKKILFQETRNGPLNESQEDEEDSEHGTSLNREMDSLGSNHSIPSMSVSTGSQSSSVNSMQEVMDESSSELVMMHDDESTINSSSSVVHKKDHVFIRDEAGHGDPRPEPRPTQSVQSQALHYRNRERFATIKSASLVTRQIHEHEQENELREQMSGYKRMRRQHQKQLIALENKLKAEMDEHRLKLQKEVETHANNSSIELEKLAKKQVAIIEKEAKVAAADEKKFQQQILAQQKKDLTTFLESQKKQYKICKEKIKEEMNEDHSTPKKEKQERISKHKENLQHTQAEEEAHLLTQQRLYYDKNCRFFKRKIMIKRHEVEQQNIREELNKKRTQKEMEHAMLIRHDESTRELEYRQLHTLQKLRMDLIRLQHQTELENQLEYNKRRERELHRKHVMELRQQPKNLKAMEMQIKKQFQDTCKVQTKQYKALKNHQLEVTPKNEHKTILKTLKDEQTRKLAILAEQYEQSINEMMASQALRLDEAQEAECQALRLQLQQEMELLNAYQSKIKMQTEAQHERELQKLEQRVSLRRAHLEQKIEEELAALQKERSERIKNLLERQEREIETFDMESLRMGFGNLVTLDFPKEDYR
Outline: as §1

TBK1 = TBK1 (Homo sapiens (Human), UniProt Q9UHD2)
Outline: as §1

TSSK1 = TSSK1 (Homo sapiens (Human), UniProt Q9BXA7)
Outline: as §1

Tie2 = Tie2 (Homo sapiens (Human), UniProt Q02763)
Outline: as §1

Yes = Yes (Homo sapiens (Human), UniProt P07947)
Outline: as §1

c-RAF = c-RAF (Homo sapiens (Human), UniProt P04049, Y340D/Y341D)
Outline: as §1

p38alpha = p38alpha (Homo sapiens (Human), UniProt Q16539)
Outline: as §1

p70S6K = p70S6K (Homo sapiens (Human), UniProt P23443)
Outline: as §1

## Cc1c(-c2cnn(C)c2)nn(-c2ccccc2)c1NC(=O)N[C@H]1CCCc2ccccc21 [Example 2, (S)-1-(1′,4-dimethyl-1-phenyl-1H,1′H-3,4′-bipyrazol-5-yl)-3-(1,2,3,4-tetrahydronaphthalen-1-yl)urea]
ARK5
  Avg. POC: 109.5 POC
CAMK2d
  Avg. POC: 119 POC
CDK2/cyclinA
  Avg. POC: 127 POC
CHK2
  Avg. POC: 119 POC
ERK1
  Avg. POC: 120.5 POC
ERK2
  Avg. POC: 112.5 POC
EphA2
  Avg. POC: 129 POC
EphB3
  Avg. POC: 110 POC
Fes
  Avg. POC: 129.5 POC
Fms
  Avg. POC: 82 POC
HIPK2
  Avg. POC: 97 POC
IGF-1R
  Avg. POC: 18 POC
MELK
  Avg. POC: 142 POC
MYLK
  Avg. POC: 100 POC
NEK3
  Avg. POC: 105 POC
NEK6
  Avg. POC: 125.5 POC
NLK
  Avg. POC: 111 POC
PAK4
  Avg. POC: 95 POC
PAK5
  Avg. POC: 109.5 POC
PAK6
  Avg. POC: 119.5 POC
PDK1
  Avg. POC: 120.5 POC
PKCiota
  Avg. POC: 95.5 POC
PKCzeta
  Avg. POC: 122.5 POC
PKD2
  Avg. POC: 102 POC
PrKX
  Avg. POC: 152 POC
ROCK-I
  Avg. POC: 116.5 POC
ROCK-II
  Avg. POC: 108 POC
SGK3
  Avg. POC: 137.5 POC
SRPK2
  Avg. POC: 106 POC
TAK1
  Avg. POC: 106 POC
TAO2
  Avg. POC: 110 POC
TAO3
  Avg. POC: 111 POC
TBK1
  Avg. POC: 116 POC
TSSK1
  Avg. POC: 106 POC
Tie2
  Avg. POC: 126 POC
Yes
  Avg. POC: 132.5 POC
c-RAF
  Avg. POC: 103.5 POC
p38alpha
  Avg. POC: 102.5 POC
p70S6K
  Avg. POC: 172 POC

## Cc1c(-c2cnn(C)c2)nn(-c2ccccc2)c1NC(=O)NC1CCOc2cc(F)ccc21 (stereo not drawn) [Example 12, 1-(1′,4-dimethyl-1-phenyl-1H,1′H-[3,4′-bipyrazol]-5-yl)-3-(7-fluorochroman-4-yl)urea]
ARK5
  Avg. POC: 99.5 POC
CAMK2d
  Avg. POC: 110.5 POC
CDK2/cyclinA
  Avg. POC: 112 POC
CHK2
  Avg. POC: 92 POC
ERK1
  Avg. POC: 105 POC
ERK2
  Avg. POC: 106.5 POC
EphA2
  Avg. POC: 113 POC
EphB3
  Avg. POC: 89 POC
Fes
  Avg. POC: 110 POC
Fms
  Avg. POC: 91 POC
HIPK2
  Avg. POC: 91.5 POC
IGF-1R
  Avg. POC: 80 POC
MELK
  Avg. POC: 67 POC
MYLK
  Avg. POC: 99 POC
NEK3
  Avg. POC: 102 POC
NEK6
  Avg. POC: 121 POC
NLK
  Avg. POC: 115.5 POC
PAK4
  Avg. POC: 103 POC
PAK5
  Avg. POC: 143 POC
PAK6
  Avg. POC: 139 POC
PDK1
  Avg. POC: 105.5 POC
PKCiota
  Avg. POC: 69.5 POC
PKCzeta
  Avg. POC: 99.5 POC
PKD2
  Avg. POC: 94 POC
PrKX
  Avg. POC: 118.5 POC
ROCK-I
  Avg. POC: 116.5 POC
ROCK-II
  Avg. POC: 99 POC
SGK3
  Avg. POC: 143.5 POC
SRPK2
  Avg. POC: 101.5 POC
TAK1
  Avg. POC: 97 POC
TAO2
  Avg. POC: 121 POC
TAO3
  Avg. POC: 99 POC
TBK1
  Avg. POC: 103 POC
TSSK1
  Avg. POC: 79 POC
Tie2
  Avg. POC: 104.5 POC
Yes
  Avg. POC: 119.5 POC
c-RAF
  Avg. POC: 96 POC
p38alpha
  Avg. POC: 110 POC
p70S6K
  Avg. POC: 124.5 POC

## Cc1c(-c2ccc(=O)n(C)c2)nn(-c2ccccc2)c1NC(=O)NC1CN(CC(F)(F)F)Cc2ccccc21 (stereo not drawn) [Example 26, 1-(4-methyl-3-(1-methyl-6-oxo-1,6-dihydropyridin-3-yl)-1-phenyl-1H-pyrazol-5-yl)-3-(2-(2,2,2-trifluoroethyl)-1,2,3,4-tetrahydroisoquinolin-4-yl)urea]
ARK5
  Avg. POC: 100.5 POC
CAMK2d
  Avg. POC: 99.5 POC
CDK2/cyclinA
  Avg. POC: 114.5 POC
CHK2
  Avg. POC: 109 POC
ERK1
  Avg. POC: 109.5 POC
ERK2
  Avg. POC: 107.5 POC
EphA2
  Avg. POC: 102 POC
EphB3
  Avg. POC: 97 POC
Fes
  Avg. POC: 100.5 POC
Fms
  Avg. POC: 96 POC
HIPK2
  Avg. POC: 103 POC
IGF-1R
  Avg. POC: 60.5 POC
MELK
  Avg. POC: 86 POC
MYLK
  Avg. POC: 101 POC
NEK3
  Avg. POC: 105 POC
NEK6
  Avg. POC: 123.5 POC
NLK
  Avg. POC: 100.5 POC
PAK4
  Avg. POC: 100.5 POC
PAK5
  Avg. POC: 121.5 POC
PAK6
  Avg. POC: 116.5 POC
PDK1
  Avg. POC: 115 POC
PKCiota
  Avg. POC: 85.5 POC
PKCzeta
  Avg. POC: 108.5 POC
PKD2
  Avg. POC: 102 POC
PrKX
  Avg. POC: 109 POC
ROCK-I
  Avg. POC: 112 POC
ROCK-II
  Avg. POC: 110 POC
SGK3
  Avg. POC: 104 POC
SRPK2
  Avg. POC: 106 POC
TAK1
  Avg. POC: 108.5 POC
TAO2
  Avg. POC: 111 POC
TAO3
  Avg. POC: 109 POC
TBK1
  Avg. POC: 113 POC
TSSK1
  Avg. POC: 71.5 POC
Tie2
  Avg. POC: 106.5 POC
Yes
  Avg. POC: 117.5 POC
c-RAF
  Avg. POC: 106.5 POC
p38alpha
  Avg. POC: 104.5 POC
p70S6K
  Avg. POC: 116 POC
